Measured values published in patent US9445596B2, “Small molecule compounds for the control of nematodes” (California Institute of Technology, priority 2011, dated 2016).
“Also recorded” adds a separate entry of the source.

Columns and labels:
C. elegans dauer larvae = experiment: Dispersal assay, C. elegans dauer; type: in vivo; conditions: for substitution for ascr#2 in the C. elegans dispersal blend: in vivo; for dauer larvae that moved away from the release location, normalized to the percent of the positive control response: physiological concentration, with 0.25% E. coli (HB101), food only control approximately 35%
Method: C. elegans dauer juveniles were washed with MILLI-Q water 3 times, placed into 6 cm petri dishes with a small amount of water, and rested overnight. Approximately 200-300 nematodes in 10 μl of water were placed on an agar plate, to which 2 μl of treatment was added. The liquid culture that produced 60% dauer animals was centrifuged, filtered with a 0.45 μm filter, and used as a positive control for dispersal. Thereafter, media were lyophilized and resuspended in MILLI-Q water 5 times. 2 μl to 10 μl of nematode suspension was used for the assay. As a negative control, 0.5% E. coli (HB101) was prepared in S-complete, lyophilized, and adjusted to the final volume of 0.25% E. coli in the assay.
Nematodes were quantified using Image J software (Image Processing and Analysis in Java, National Institutes of Health). The number of nematodes visualized and counted using Image J is illustrated in FIG. 63B. Nematodes inside the circle were subtracted manually from the total number of worms counted because of the location of their placement. Each treatment was replicated 9-11 times. The graph was normalized to the positive control, the dauer conditioned medium.

[1] = tested on: several of the tested nematode species; experiment: Retention assay, several nematode species; type: in vivo; conditions: 1 nM, 1 μM and 1 mM tested
Method: OP50 E. coli was grown on a standard 5 cm agar plate (made with standard Nematode Growth Medium). The bacterial lawn was 16 mm in diameter and was grown overnight at 20° C. before being used in trials. Two 4 mm spots (0.6 μL) were placed on opposite sides of the bacterial lawn (using a transparent template to guide spot placement), and several minutes elapsed for the liquid to settle in before placing nematodes down on the assay. Recording began immediately upon worm placement. 0.6 μL of the control was placed on one side of the lawn, and 0.6 μL of the experimental cue was placed on the other side of the lawn, changing the location of the cue throughout trials between left/right and top/bottom to avoid bias.
Nematodes were isolated by gender at the L4 stage the day before being used in trials as developed adults. Worms were evenly divided and placed at two points equidistant from the foci of the scoring region. Trials were recorded for 20 minutes, and frames were collected for analysis at 1 frame per second. Results were averaged from at least three different trials. For every nematode species in this study, a different total number of worms (using water in both scoring regions) was tested to determine the minimum number of worms necessary for consistent unbiased results over a 20 minute trial. The total number of worms used in the multiple species assays depended on that species' optimal parameters. 10 worms were used for P. redivivus males and females, 20 worms were used for C. elegans males and O. dolichuridae males, and 14 worms were used for S. glaseri males. The Automated Software was used to compare worm occupancy in each scoring region over time, and the Chemotaxis Index (Bargmann et al., Cell 74:515-27 (1993), which is hereby incorporated by reference in its entirety) was adapted to score preference or avoidance to each ascaroside.
A video camera attached to the microscope produced a digital video stream, which was then analyzed. The ratio of the time the average worm spent in each region of interest was calculated for every trial. For ease of implementation, all worms in a single experiment were assumed to be roughly the same size. Thus worm pixels were counted instead of whole worms, allowing fractions of a worm in the region of interest to be taken into account. It also eliminated the need for a shape-based worm identification algorithm, and allowed each frame to be analyzed independently. A band-pass filter was applied to each frame to eliminate the effect of uneven lighting and also accentuate the worms against the background. The worm was then identified after thresholding the filtered image. Throughout each experiment, the locations and sizes of the regions of interest were known. Through the filtering described above, it is known which pixels are occupied by worms and which ones are not. Thus, the ratio of worm-pixels to all pixels inside the region of interest can be calculated to produce the worm-occupancy ratio. This calculation was done for every frame, giving a plot output of worm-occupancy ratio vs. time for each region.

[2] = tested on: P. pacificus strain RSB020; experiment: Mouth-form dimorphism assay; type: in vivo, Pristionchus pacificus
Method: Mouth-form dimorphism assays were performed using P. pacificus strain RSB020. The synthetic compounds dissolved in ethanol (0.5 mM) were diluted with water to make 100 μl solution and subsequently added to 3 mL NGM-agar (1 μM final concentration). The assay plates were seeded with 50 μl OP50 culture in LB medium and incubated overnight at 20° C. to allow bacterial growth. Each replicate included the progeny of two mothers, which were picked as adult hermaphrodites of a consistent age (carrying 4-6 eggs) and which were all from the same P. pacificus culture plate. Following the placement of mothers on assay plates, plates were kept at 20° C. for six days, such that the entire broods were adults at the time of screening. A random sample of 50 hermaphrodite progeny was screened per plate. All animals were screened by differential interference contrast (DIC) microscopy on a Zeiss Axiskop. The following discrete characters were used to discriminate eurystomatous from stenostomatous individuals, respectively: (1) claw-shaped vs. flint-shaped (i.e. dorsoventrally symmetrical) dorsal tooth; (2) presence vs. absence of a subventral tooth; (3) strongly vs. weakly sclerotized stomatal walls. No intermediate mouth-forms were observed. Experiments were conducted in triplicate for each treatment. In assays of responses to compounds of several concentrations (1, 0.3, 0.1, 0.03, 0.01 μM final concentrations), experiments were performed as described above, with the following modifications. To allow greater resolution of responses to lower concentrations, 60 randomly screened individuals in each of five replicates per concentration per compound were assayed. All concentration-curve experiments were performed in parallel using mothers picked randomly from the same two source populations. To prepare large numbers of individual mothers for these experiments, source populations were established from virgin hermaphrodites to constrain the presence of males and were conditioned to well-fed and ambient conditions for at least one generation before mothers were picked for the assays.

S. feltiae IJs = experiment: Dispersal assay, S. feltiae infective juveniles; type: in vivo; conditions: for dispersal activity in combination with natural fractions B and C: ascr#9 40 pmol/μl, ascr#11 1.3 pmol/μl; for dispersal activity when tested alone: physiologically relevant concentrations
Method: S. feltiae IJs were washed with MILLI-Q water three times and incubated in 6 cm petri dishes for […] with a small amount (4-5 ml) of MILLI-Q water. Nematodes were placed the following day on a 10.7 g/L agar with 1010 g/cm^2 gel strength (PhytoTechnology Lab. Shawnee Mission, Kans.). Nematode behavior was assayed on multiple plates with internal plate replicates to rule out the possibility that behavior was affected by plate composition. Approximately 300 IJs in 10 μl water were placed on an agar medium and the test compounds or extracts (1-2 μl) were placed into the nematode suspension. Upon absorption (˜15 minutes) of the liquid, the freely moving nematodes were video recorded for 5-10 minutes. Dispersal behavior is temperature and season dependent. During winter, the assay is effective at room temperature (22±1° C.). During summer, the assay requires a temperature controlled environment due to the effects on nematode behavior above 23° C.
Activity-guided fractionation was conducted as reported in Srinivasan et al., Nature 454:1115-18 (2008), which is hereby incorporated by reference in its entirety, with modifications. A total of 33 insect host cadavers (G. mellonella larvae) were placed into 70% EtOH and stored at −20° C. until extraction. The insect cadavers were homogenized using 1 g of ceramic zirconium beads (1.25 mm) (ZIRMIL) in 2 ml tubes for 37 seconds using a Precellys24 homogenizer. Samples were centrifuged for 15 minutes at 18400 relative centrifugal force (rcf), and the supernatant was lyophilized and resuspended in MILLI-Q water. The dispersal activity of nematodes was tested using the dispersal assay described in Example 60 and a physiologically relevant concentration of insect host cadaver extract or fractionated extract. To facilitate calculations for physiologically relevant concentration of the ascarosides, wax worm volume was estimated at ˜200 μl; the average weight of wax worms was 232+57 mg (n=19).
The first reverse-phase solid-phase extraction was performed using Sep-Pak Plus C18 cartridges (Waters corporation, Milford, Mass.). The initially collected flow through was termed Fraction A. Thereafter, the column was washed with water, collected, and saved. Subsequently, the column was eluted with 50% (Fraction B) and 90% (Fraction C) MeOH. The fractions were tested for dispersal activity both individually and in combination. Also, individual fractions were analyzed by LC-MS. Fraction A contained ascr#9, which was collected by LC-MS and tested for activity with Fraction B+C.

C. elegans = conditions: shown previously; cited from earlier work
C. elegans males = experiment: Attraction assay (long-range, point source); type: in vivo; conditions: point source on 10 cm plate
Method: 10 cm standard chemotaxis plates were prepared (Bargmann et al., Cell 74:515-27 (1993), which is hereby incorporated by reference in its entirety) and stored at 4° C. until the day before use. Standard 1 cm-diameter copper pipes were sectioned into 1 cm-tall segments to use for the holding chambers. The females/hermaphrodites were isolated overnight, washed 3 times in M9 buffer, and then allowed to wander on a plate pre-conditioned with 50 uL of 1000× streptomycin for 2 hours to kill any bacteria that might produce a false positive attractant. The nematodes were then washed 3 times, and the supernatant from the last wash was placed in a copper chamber, as the control, 1 cm from the border of the 10 cm plate. The nematodes were suspended in M9 within the copper chamber, 1 cm from the border opposite the control chamber. After 6 hours, they were subsequently removed and replaced with 3 μL of 1M sodium azide. 100 C. elegans adult males were isolated overnight, washed several times in ddH2O, and placed at the center of the agar plate. After several hours, males paralyzed within 2 cm of each region were scored. The Chemotaxis Index (Bargmann et al., Cell 74:515-27 (1993), which is hereby incorporated by reference in its entirety) was then used to score male chemotaxis to either point source.

P. pacificus = experiment: Dauer formation assay; type: in vivo, Pristionchus pacificus; conditions: synthetic samples; first assayed at 1 μM
Method: Dauer formation assays were performed as described in Ogawa et al., Curr. Biol. 19:67-71 (2009), which is hereby incorporated by reference in its entirety, using heat- or kanamycin-killed E. coli OP50. Synthetic compounds were dissolved in ethanol (0.5 mM, stock solution) and combined with water to make a […] and subsequently added to 3 mL NGM-agar without peptone ([…], 0.3, 0.1 μM final concentrations).

[3] = tested on: C. elegans hermaphrodites and males; conditions: from 1 μM concentration; previous study (Srinivasan 2008); cited from earlier work

SMILES	preference for areas conditioned by the ascaroside [1]	dispersal activity in combination with natural fractions B and C (S. feltiae IJs)	dispersal activity when tested alone (S. feltiae IJs)	dauer larvae that moved away from the release location, normalized to the percent of the positive control response (C. elegans dauer larvae) [%]	promotion of dauer entry (C. elegans)	male attraction from a distance / chemotaxis towards a point source (C. elegans males)	other results
C[C@H](CCC(=O)O)O[C@@H]1O[C@@H](C)[C@H](O)C[C@H]1O [ascr#9]	preferred	restored the original dispersal activity	did not have activity by themselves				substitution for ascr#2 in the C. elegans dispersal blend (C. elegans dauer larvae): can replace the function of ascr#2; substitution for ascr#2 in the C. elegans dispersal blend (C. elegans dauer larvae; listed as Ascr#9): able to substitute for its structural analog ascr#2; induction of the eurystomatous mouth form ([2]; synthetic samples, first assayed at 1 μM): inactive
C[C@H](CC(=O)O)O[C@@H]1O[C@@H](C)[C@H](O)C[C@H]1O [ascr#11]		restored the full activity; also recorded: sufficient to cause dispersal	did not have activity by themselves				
C[C@H](CC/C=C/C(=O)Nc1ccc(C(=O)O)cc1)O[C@@H]1O[C@@H](C)[C@H](O)C[C@H]1O [ascr#8]	preferred			50	individually promote dauer entry	not active	
C[C@H](CCC(=O)O[C@H](C)[C@H](NC(=O)Nc1ncnc2c1ncn2[C@@H]1OC[C@@H](O)[C@H](O)[C@H]1O)C(=O)O)O[C@@H]1O[C@@H](C)[C@H](O)C[C@@H]1O [npar#1, (2S,3R)-3-(((R)-4-(((2R,3S,5R,6S)-3,5-dihydroxy-6-methyltetrahydro-2H-pyran-2-yl)oxy)pentanoyl)oxy)-2-(3-(9-((2R,3R,4S,5R)-3,4,5-trihydroxytetrahydro-2H-pyran-2-yl)-9H-purin-6-yl)ureido)butanoic acid]							induction of the eurystomatous mouth form ([2]; high concentrations): weaker induction of the eurystomatous mouth form; dauer induction (P. pacificus): induces dauer arrest; also recorded: strongly induced dauer formation
CC(=O)CCC[C@@H](C)O[C@@H]1O[C@@H](C)[C@H](O)C[C@H]1O [ascr#2]				40	individually promote dauer entry	chemotax towards	lowest amount eliciting male attraction (as low as) (C. elegans males): 500 attomol; most active amount for attraction in C. elegans [3]: ~1 pmol
